Here are results for 1 molecule from patent US20210401863A1, “TREATMENT AND PREVENTION OF NEISSERIA GONORRHOEAE INFECTION USING CMP-ACTIVATED NONULOSONATE ANALOG COMPOUNDS” (NATIONAL RESEARCH COUNCIL OF CANADA, priority 2015, published 2021).

Read-outs that look alike come from different tables or passages of the source.

One assay has as its system N. gonorrhoeae F62 ΔlgtD. It is filed as cell-based, Neisseria gonorrhoeae. As for the experimental part: Generally, bacteria (F62 ΔlgtD) grown overnight on chocolate agar plates were suspended in gonococcal liquid media supplemented with IsoVitaleX [29] that contained specified concentrations of the CMP-nonulosonate. Bacteria were then incubated at 37° C. for the period specified in each experiment.
Serum bactericidal assays were performed as follows, similar to methods outlined in [32,33] and in U.S. Pat. No. 9,765,106. Bacteria were harvested from an overnight culture on chocolate agar plates and ˜10^5 CFU of Ng were grown in liquid media containing the concentrations of CMP-NuIO as specified for each experiment. Bacteria were diluted in Morse A and ˜2000 CFU of Ng F62 ΔlgtD were incubated with NHS (concentration specified for each experiment). The final reaction volumes were maintained at 150 μL. Aliquots of 25 μL of reaction mixtures were plated onto chocolate agar in duplicate at the beginning of the assay (t0) and again after incubation at 37° C. for 30 minutes (t30). Survival was calculated as the number of viable colonies at t30 relative to t0.
Addition of a terminal Neu5Ac residue to the LNnT LOS of N. gonorrhoeae that occurs in vivo or following the addition of CMP-Neu5Ac to growth media results in resistance to complement-dependent killing. We next determined the effects of LNnT incorporation of KDN on the ability of N. gonorrhoeae F62 ΔlgtD to resist complement-dependent killing by normal human sera at concentrations of 3.3% or 10%. Bacteria were grown either in media alone, or media supplemented with 20 μg/mL of CMP-Neu5Ac or CMP-KDN. In addition, CMP-NulO competition experiments were also performed with CMP-Neu5Ac, CMP-Leg5Ac7Ac and CMP-KDN at CMP-NulO concentrations of either 20 μg/mL or 2 μg/mL as indicated, where the second CMP-NulO was added 15 minutes after the first (Table 1 below). To note, these CMP-NulO competition experiments are a method to examine the ability of select CMP-NulOs to counter the enhanced serum resistance due to CMP-Neu5Ac addition, providing information on their therapeutic potential (as any potential therapeutic will be required to compete with CMP-Neu5Ac in vivo).

In assay [1] the target is T1, gonococcal LOS sialyltransferase (Lst) (Neisseria gonorrhoeae, UniProt P72074).
T1 construct: CMP-KDN served as a substrate for gonococcal Lst in the context of live bacteria; endogenous in cells; host or cells: N. gonorrhoeae F62 ΔlgtD (live bacteria)
The experiment in a line: mAb 3F11 binding by flow cytometry (incorporation of NulO on LNnT LOS by Lst). To be noted: F62 ΔlgtD grown in media with 20 μg/mL CMP-NulO. The class given is cell-based, N. gonorrhoeae F62 ΔlgtD. The procedure:
FIG. 1: CMP-KDN serves as a substrate for gonococcal LOS and incorporation of KDN on gonococcal lacto-N-neotetraose LOS enhances factor H (FH) binding. A. Incorporation of KDN by gonococci. Gonococcal strain F62 ΔlgtD (expresses lacto-N-neotetraose (LNnT) from Hepl) was grown in media containing CMP-KDN (20 μg/mL) and binding of mAb 3F11 was measured by flow cytometry. mAb 3F11 binds only to […] LNnT; substitution of the terminal Gal of LNnT, for example with a NulO, will decrease mAb 3F11 binding. Approximately 5×10^7 bacteria were incubated with mAb 3F11 tissue culture supernatants for 15 minutes at 37° C. Binding of mAb 3F11 was disclosed with anti-mouse IgM FITC (Sigma; dilution of 1:100). Bacteria grown in CMP-Neu5Ac or in media alone were used as positive and negative controls for sialylation, respectively. A representative histogram is shown in the upper panel. […] B. Factor H (FH) binding to gonococci grown in CMP-KDN. Approximately 5×10^7 bacteria grown in media alone (no sialic acid), media plus CMP-Neu5Ac (20 μg/mL; positive control for FH binding) or in media containing CMP-KDN (20 μg/mL) were incubated with purified human FH (20 μg/mL) in HBSS** for 15 minutes at 37° C. and bound FH was detected with affinity isolated goat anti-human FH followed by anti-goat IgG FITC (Sigma; 1:100 dilution). A representative histogram is shown in the upper panel.
FIG. 3: CMP-KDN7N3 serves as a substrate for gonococcal Lst resulting in incorporation of KDN7N3 on gonococcal lacto-N-neotetraose (LNnT) LOS—Incorporation of KDN7N3 by gonococci. Gonococcal strain F62ΔlgtD (expresses lacto-N-neotetraose (LNnT) from Hepl) was grown in media containing CMP-KDN7N3 (20 μg/mL) and binding of mAb 3F11 was measured by flow cytometry. mAb 3F11 binds only to […] LNnT; substitution of the terminal Gal of LNnT, for example with a NulO, will decrease mAb 3F11 binding. Approximately 5×10^7 bacteria were incubated with mAb 3F11 tissue culture supernatants for 15 minutes at 37° C. Binding of mAb 3F11 was disclosed with anti-mouse IgM FITC (Sigma; dilution of 1:100). […]
(In general: A flow cytometer gives signals particle by particle.)

T1 sequence (P72074 whole entry): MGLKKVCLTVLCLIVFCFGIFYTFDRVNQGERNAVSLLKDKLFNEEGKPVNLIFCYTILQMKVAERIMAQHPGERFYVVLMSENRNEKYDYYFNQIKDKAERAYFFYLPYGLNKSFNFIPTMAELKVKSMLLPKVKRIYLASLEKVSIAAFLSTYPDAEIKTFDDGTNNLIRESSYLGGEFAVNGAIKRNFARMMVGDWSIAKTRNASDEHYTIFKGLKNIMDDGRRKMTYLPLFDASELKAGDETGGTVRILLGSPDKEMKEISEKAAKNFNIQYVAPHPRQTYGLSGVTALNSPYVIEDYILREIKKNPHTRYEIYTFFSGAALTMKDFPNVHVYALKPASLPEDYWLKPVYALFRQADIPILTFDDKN

`Nc1ccn([C@@H]2O[C@H](COP(=O)(O)O[C@@]3(C(=O)O)CC(O)[C@@H](O)C([C@H](O)[C@H](O)CO)O3)C(O)C2O)c(=O)n1` (stereo partly drawn) [CMP-KDN, cytidine 5′-monophospho-3-deoxy-D-glycero-D-galacto-nonulosonic acid]: the “% survival in 3.3% serum” value in the assay with N. gonorrhoeae F62 ΔlgtD (CMP-Neu5Ac (20 μg/mL) first, labelled CMP-NulO (20 μg/mL) added 15 minutes later, 3.3% serum) is given as 107%; with N. gonorrhoeae F62 ΔlgtD (Table 1, CMP-NulO 20 μg/mL alone, 3.3% serum), 110%; in the assay on N. gonorrhoeae F62 ΔlgtD (labelled CMP-NulO (20 μg/mL) first, CMP-Neu5Ac (2 μg/mL) added 15 minutes later, 3.3% serum), 107%; in the assay on N. gonorrhoeae F62 ΔlgtD (labelled CMP-NulO (20 μg/mL) first, CMP-Neu5Ac (20 μg/mL) added 15 minutes later, 3.3% serum), 107%. Moreover, the “% survival in 10% serum” value turned out to be 108% with N. gonorrhoeae F62 ΔlgtD (CMP-Neu5Ac (20 μg/mL) first, labelled CMP-NulO (20 μg/mL) added 15 minutes later, 10% serum); 11% in the assay with N. gonorrhoeae F62 ΔlgtD (Table 1, CMP-NulO 20 μg/mL alone, 10% serum); 10% with N. gonorrhoeae F62 ΔlgtD (labelled CMP-NulO (20 μg/mL) first, CMP-Neu5Ac (2 μg/mL) added 15 minutes later, 10% serum); 11% with N. gonorrhoeae F62 ΔlgtD (labelled CMP-NulO (20 μg/mL) first, CMP-Neu5Ac (20 μg/mL) added 15 minutes later, 10% serum). The “serum resistance (in words)” value in the assay on N. gonorrhoeae F62 ΔlgtD (CMP-NulO alone, 3.3% serum) is reported as “complete serum resistance was observed”. Besides, in the assay on N. gonorrhoeae F62 ΔlgtD (CMP-NulO alone, 10% serum), the “serum sensitivity (in words)” value was “serum sensitivity was observed”. In the assay on N. gonorrhoeae F62 ΔlgtD (CMP-NulO competition, second CMP-NulO 15 minutes after the first, 3.3% and 10% serum), the “countering of serum resistance mediated by CMP-Neu5Ac (competition, in words)” value was “could only counter CMP-Neu5Ac induced serum resistance if it was provided before CMP-Neu5Ac”. Moreover, the “binding of mAb 3F11 (use as substrate by gonococcal Lst)” value in assay [1] was “decreased binding of mAb 3F11 similarly”.
